According to patent US4855415A, “Glucosylmoranoline derivatives” (Nippon Shinyaku Co., Ltd., priority 1986, dated 1989):
In brackets after ≈: the same amount, converted by molar mass.

How the values were obtained:
mice = assay: oral toxicity in mice; format: in vivo; conditions: orally, 5 g/kg
Experimental: The toxicity of the compounds (I) was tested by giving the compound of Example 1 orally to mice (5 g/kg) but there were no deaths.

maltase = assay: alpha-glucosidase inhibiting action in vitro: maltase; format: biochemical, rabbit; conditions: 50 mM maltose, pH 7.0, 37° C., 30 minutes; for inhibitory rate, Maltase: ** inhibitory rate at 100 μg/ml; for IC50, Maltase: crudely purified enzyme from rabbit small intestine mucosa, average of three measurements (* four)
Experimental: (§1) MEASUREMENT OF ALPHA-GLUCOSIDASE INHIBITING ACTION IN VITRO
(§2) The activity of the test compounds in inhibiting sucrase and maltase in vitro using a crudely purified enzyme preparation (purified in accordance with a method of Takesue, 1969) obtained from rabbit small intestine mocosa was carried out as follows.
(§3) To 40 microliters of enzyme solution diluted with 0.4M phosphate buffer (pH 7.0) are added 20 microliters of a solution of a test compound in the same buffer and 140 microliters of a solution of a substrate (50 mM sucrose or 50 mM maltose) in the same buffer and the mixture is allowed to react at 37° C. for 30 minutes. The reaction is then stopped by adding 400 microliters of 3N barium hydroxide and 400 microliters of 5% zinc sulfate solution. The amount of the enzyme that is reacted is determined as the amount of glucose contained in 200 microliters of the supernatant liquid of the reaction solution by adding 3 ml of glucoseoxidase reagent (Bioehringer-Mannheim) followed by reacting at ambient temperature for 30 minutes and measuring the absorbance at 420 nm. The concentration of the compound that provides 50% inhibition (IC50) of sucrase and maltase is calculated by expressing the values (as measured by the above method with five different concentrations) as an inhibitory rate (%) to the control.

[1] = system: increase in blood glucose level; assay: inhibitory action against increase in blood glucose level in rats (oral sucrose load); format: in vivo, SD-Strain rats; conditions: per os, 1 ml/100 g of sucrose solution (2 g/10 ml) containing 30 mg test compound, 180 minutes after administration
Experimental: INHIBITORY ACTION AGAINST INCREASE IN BLOOD GLUCOSE LEVEL IN RATS
SD-Strain rats (5 weeks age; male; each group comprising 4 to 5 rats) were fasted overnight and then given 1 ml/100 g body weight of aqueous solution of sucrose (2 g/10 ml) containing 30 mg test compound per os through a stomach tube.
Blood was taken from the tail vein immediately before the administration and at 30, 60, 90, 120 and 180 minutes thereafter and blood glucose levels were measured by a glucose oxidase method (using the assay kit prepared by Boehringer Mannheim).
Based on the values obtained above, a graph was drawn using time as the abscissa and blood glucose level as the ordinate and the area (ΔAUC)under the time-blood glucose increase curve was determined.
A group of rats receiving only water and another group receiving only sucrose were designated as a basal group (group B) and a control group (group C), respectively. Then the inhibitory rate for an increase in ΔAUC 180 minutes after administration of the test compounds (group T) was calculated from the following expression. [formula]

sucrase = molecular target: T1, sucrase (Oryctolagus cuniculus, UniProt P07768); assay: alpha-glucosidase inhibiting action in vitro: sucrase; format: biochemical, rabbit; conditions: 50 mM sucrose, pH 7.0, 37° C., 30 minutes; for IC50: IC50, Sucrase, crudely purified enzyme from rabbit small intestine mucosa, average of three measurements (* four)
T1 construct: from tissue; host or cells: rabbit small intestine mucosa, crudely purified by a method of Takesue, 1969
Experimental: as §1, §2, §3

T1 sequence (P07768 1008-1827 limits assumed): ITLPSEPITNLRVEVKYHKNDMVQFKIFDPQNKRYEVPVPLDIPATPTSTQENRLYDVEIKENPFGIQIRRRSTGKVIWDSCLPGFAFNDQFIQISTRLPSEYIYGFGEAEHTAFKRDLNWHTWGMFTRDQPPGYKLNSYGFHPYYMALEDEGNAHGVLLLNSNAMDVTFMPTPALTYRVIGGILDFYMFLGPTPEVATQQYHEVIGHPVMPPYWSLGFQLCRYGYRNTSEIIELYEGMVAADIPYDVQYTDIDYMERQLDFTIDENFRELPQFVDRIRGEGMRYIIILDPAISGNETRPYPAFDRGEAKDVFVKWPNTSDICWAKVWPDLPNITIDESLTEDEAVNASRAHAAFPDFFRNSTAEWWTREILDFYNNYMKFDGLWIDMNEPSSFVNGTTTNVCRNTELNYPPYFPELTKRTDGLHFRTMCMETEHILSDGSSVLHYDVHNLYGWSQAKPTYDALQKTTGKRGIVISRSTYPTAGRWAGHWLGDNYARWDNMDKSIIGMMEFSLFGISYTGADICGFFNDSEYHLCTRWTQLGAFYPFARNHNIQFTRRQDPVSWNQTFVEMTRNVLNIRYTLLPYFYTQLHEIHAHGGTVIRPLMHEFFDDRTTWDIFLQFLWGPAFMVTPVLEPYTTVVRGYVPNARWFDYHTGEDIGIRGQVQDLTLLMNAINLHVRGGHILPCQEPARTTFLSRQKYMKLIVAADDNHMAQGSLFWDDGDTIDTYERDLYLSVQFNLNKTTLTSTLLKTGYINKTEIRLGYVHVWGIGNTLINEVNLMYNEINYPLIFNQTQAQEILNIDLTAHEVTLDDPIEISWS
T1 sequence (P07768 2-1007 partner limits assumed): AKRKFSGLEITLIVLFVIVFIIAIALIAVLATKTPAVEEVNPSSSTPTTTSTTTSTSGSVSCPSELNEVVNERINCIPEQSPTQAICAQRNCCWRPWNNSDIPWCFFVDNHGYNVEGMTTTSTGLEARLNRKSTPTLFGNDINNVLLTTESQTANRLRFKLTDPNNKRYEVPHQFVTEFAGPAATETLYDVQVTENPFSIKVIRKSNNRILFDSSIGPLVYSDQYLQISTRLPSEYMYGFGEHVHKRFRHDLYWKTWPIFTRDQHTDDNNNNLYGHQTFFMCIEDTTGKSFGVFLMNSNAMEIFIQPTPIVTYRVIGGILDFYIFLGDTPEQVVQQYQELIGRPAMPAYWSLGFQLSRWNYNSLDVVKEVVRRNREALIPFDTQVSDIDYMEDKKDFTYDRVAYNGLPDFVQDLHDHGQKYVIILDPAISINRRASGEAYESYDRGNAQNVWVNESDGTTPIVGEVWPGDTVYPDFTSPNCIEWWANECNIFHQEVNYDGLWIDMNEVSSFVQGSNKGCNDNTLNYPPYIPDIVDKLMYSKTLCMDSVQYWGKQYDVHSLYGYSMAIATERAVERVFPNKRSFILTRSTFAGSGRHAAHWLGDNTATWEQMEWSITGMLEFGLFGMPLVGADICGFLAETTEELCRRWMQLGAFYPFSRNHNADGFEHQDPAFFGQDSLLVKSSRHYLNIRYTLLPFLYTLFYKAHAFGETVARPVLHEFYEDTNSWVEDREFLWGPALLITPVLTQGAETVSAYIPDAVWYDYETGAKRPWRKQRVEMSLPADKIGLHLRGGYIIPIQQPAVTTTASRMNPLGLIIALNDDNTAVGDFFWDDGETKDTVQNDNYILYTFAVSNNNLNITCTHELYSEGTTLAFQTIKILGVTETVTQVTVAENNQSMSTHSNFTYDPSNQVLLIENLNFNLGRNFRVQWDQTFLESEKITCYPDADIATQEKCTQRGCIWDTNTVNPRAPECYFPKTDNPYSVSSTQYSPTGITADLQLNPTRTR

Structure (SMILES)	deaths (mice)	inhibitory rate, Maltase (maltase) [%]	Inhibitory Rate (%) for increase in ΔAUC of blood glucose [1] [%]	IC50 (sucrase) [µM]	IC50, Maltase (maltase) [µg/mL]	inhibition at 100 µg/mL (sucrase; ** inhibitory rate at 100 μg/ml) [%]
Cc1ccc(CN2C[C@H](O)[C@@H](O)[C@H](O[C@H]3O[C@H](CO)[C@@H](O)[C@H](O)[C@H]3O)[C@H]2CO)cc1 [Example 1, 4-O-alpha-D-Glucopyranosyl-N-(p-methylbenzyl)-moranoline]	no deaths	23.5	68.6	36.1	–	–
CC(C)=CCN1C[C@H](O)[C@@H](O)[C@H](O[C@H]2O[C@H](CO)[C@@H](O)[C@H](O)[C@H]2O)[C@H]1CO [Example 3, 4-O-alpha-D-Glucopyranosyl-N-(3-methylcrotyl)moranoline p-toluensulfonate]	–	–	73.2	43.7	248.9 (≈ 633 µM)	–
OC[C@@H]1[C@@H](O[C@H]2O[C@H](CO)[C@@H](O)[C@H](O)[C@H]2O)[C@H](O)[C@@H](O)CN1Cc1ccc(Br)cc1 [Example 4, 4-O-alpha-D-Glucopyranosyl-N-(p-bromobenzyl)moranoline]	–	–	–	20.2	34.2 (≈ 69.2 µM)	–
CCCCCCN1C[C@H](O)[C@@H](O)[C@H](O[C@H]2O[C@H](CO)[C@@H](O)[C@H](O)[C@H]2O)[C@H]1CO [Example 5, 4-O-alpha-D-Glucopyranosyl-N-hexylmoranoline p-toluenesulfonate]	–	–	94.8	–	–	–
OC[C@@H]1[C@@H](O[C@H]2O[C@H](CO)[C@@H](O)[C@H](O)[C@H]2O)[C@H](O)[C@@H](O)CN1CCc1ccccc1 [Example 6, 4-O-alpha-D-Glucopyranosyl-N-(beta-phenylethyl)moranoline]	–	–	69.9	71.7	192.5 (≈ 448 µM)	–
COc1ccc(CN2C[C@H](O)[C@@H](O)[C@H](O[C@H]3O[C@H](CO)[C@@H](O)[C@H](O)[C@H]3O)[C@H]2CO)cc1 [Example 8, 4-O-alpha-D-Glucopyranosyl-N-(p-methoxybenzyl)moranoline]	–	–	54.8	55.7	173.0 (≈ 388 µM)	–
OC[C@@H]1[C@@H](O[C@H]2O[C@H](CO)[C@@H](O)[C@H](O)[C@H]2O)[C@H](O)[C@@H](O)CN1CCOc1ccccc1 [Example 9, 4-O-alpha-D-Glucopyranosyl-N-(beta-phenoxyethyl)moranoline]	–	–	64.5	14.4	223.6 (≈ 502 µM)	–
O=C(O)c1ccc(CN2C[C@H](O)[C@@H](O)[C@H](O[C@H]3O[C@H](CO)[C@@H](O)[C@H](O)[C@H]3O)[C@H]2CO)cc1 [Example 12, 4-O-alpha-D-Glucopyranosyl-N-(4-carboxybenzyl)moranoline p-toluenesulfonate]	–	2.0	46.6	–	–	21.9
C=CCN1C[C@H](O)[C@@H](O)[C@H](O[C@H]2O[C@H](CO)[C@@H](O)[C@H](O)[C@H]2O)[C@H]1CO [Example 13, 4-O-alpha-D-Glucopyranosyl-N-allylmoranoline p-toluenesulfonate]	–	–	77.1	62.7	262.1 (≈ 717 µM)	–
OC[C@@H]1[C@@H](O[C@H]2O[C@H](CO)[C@@H](O)[C@H](O)[C@H]2O)[C@H](O)[C@@H](O)CN1CCCCOc1ccccc1 [Example 14, 4-O-alpha-D-Glucopyranosyl-N-(4-phenoxybutyl)-moranoline]	–	–	86.9	14.4	168.6 (≈ 356 µM)	–
CCCCCCCCCN1C[C@H](O)[C@@H](O)[C@H](O[C@H]2O[C@H](CO)[C@@H](O)[C@H](O)[C@H]2O)[C@H]1CO [Example 17, 4-O-alpha-D-Glucopyranosyl-N-nonylmoranoline hydrate]	–	–	80.2	11.5	77.9	–
COC(=O)CCCCN1C[C@H](O)[C@@H](O)[C@H](O[C@H]2O[C@H](CO)[C@@H](O)[C@H](O)[C@H]2O)[C@H]1CO [Example 18, 4-O-alpha-D-Glucopyranosyl-N-(4-methoxycarbonylbutyl)moranoline p-toluenesulfonate]	–	–	47.9	45.1	44.6 (≈ 101 µM)	–
OC[C@@H]1[C@@H](O[C@H]2O[C@H](CO)[C@@H](O)[C@H](O)[C@H]2O)[C@H](O)[C@@H](O)CN1CCc1ccccc1 [Example 19, 4-O-alpha-D-Glucopyranosyl-N-phenethylmoranoline p-toluenesulfonate]	–	–	54.0	–	–	–
OC[C@@H]1[C@@H](O[C@H]2O[C@H](CO)[C@@H](O)[C@H](O)[C@H]2O)[C@H](O)[C@@H](O)CN1CC=Cc1ccccc1 [Example 20, 4-O-alpha-D-Glucopyranosyl-N-cinnamylmoranoline p-toluenesulfonate]	–	–	76.8	22	284.9 (≈ 645 µM)	–
OC[C@@H]1[C@@H](O[C@H]2O[C@H](CO)[C@@H](O)[C@H](O)[C@H]2O)[C@H](O)[C@@H](O)CN1CC(O)COc1ccccc1 (stereo partly drawn) [Example 22, 4-O-alpha-D-Glucopyranosyl-N-(2-hydroxy-3-phenoxypropyl)moranoline p-toluenesulfonate hydrate]	–	–	48.4	33.9	40.9	–
Cc1ccc(CN2C[C@H](O)[C@@H](O)[C@H](O[C@H]3O[C@H](CO)[C@@H](O)[C@H](O)[C@H]3O)[C@H]2CO)cc1 [Example 25, 4-O-alpha-D-Glucopyranosyl-N-(p-methylbenzyl)moranoline p-toluenesulfonate]	–	–	84.4	32.6	69.2 (≈ 161 µM)	–
